Measured values as given in patent publication US9284315B2, “Three-ring PI3K and/or mTOR inhibitor” (XUANZHU PHARMA CO., LTD., priority 2011, dated 2016).
Several values for one entry are separate records, joined by “and”; a condition that tells them apart may be missing. Identical values can stand only once.

Assays:
SKOV-3 = assay: Cell viability assay by XTT method, SKOV-3; format: cell-based; conditions: Homo sapiens, SK-OV-3
Experimental: (§1) 1. Preparation of Reagents and Compounds
(§2) 2) Preparation of XTT test working solution:
(§3) 100 mg of tetrazolium salt (XTT) powder was weighed and dissolved in dark in 300 mL of phenol red-free serum-free RPMI1640 medium heated to 50° C., filtered and subpackaged, used immediately or within a week. All process should be conducted in dark.
(§4) 3) Preparation of test compounds
(§5) preparation of stock solutions of the test substances: the powder of test substances was dissolved in DMSO in a concentration of 10 mM.
(§6) preparation of gradiently diluted stock solutions of test substances: First, 10 mM of the stock solutions of test substances were diluted serially in 4-fold with DMSO to 10 concentrations. 2 μL of DMSO-diluted solution for each compound was taken and added to 998 μL of culture medium containing 10% fetal bovine serum (FBS). The highest concentration of the test substances was 20 μM, the concentration of DMSO was 0.2%, and there were 10 concentration gradients in total.
(§7) 1) Preparation of cell suspension
(§8) The culture medium was discarded from the flask, and the cells were washed twice with PBS. Added trypsinase to digest the cell and then collected by centrifugation, resuspended with a medium containing 10% FBS, counted and adjusted to an appropriate concentration (cell viability must be greater than 90%). The cell concentration was […].
(§9) 2) The cell suspension was added to 96-well plates, each well 100 μL.
(§10) 3) Incubated in a cell incubator overnight at 37° C., 5% CO2.
(§11) Added compound diluted 2-fold to the cell culture plates, three repeated in total, 100 μL well.
(§12) 5. Cell Viability Assay by XTT Method
(§13) Discarded the culture medium, added XTT test working liquid in an amount of 150 μL well, and kept in a cell incubator at 37° C., 5% CO2 for 2 h, then placed into a microplate reader and read the absorbance at 450 nm.
(§14) 1) The percentage of inhibition was calculated using the following formula: Inhibition rate (%)=(reading(solvent)−reading(compound))/reading(solvent)−reading(positive control))×100
(§15) 2) The data was entered into GraphPad Prism 5.0 and plotted to obtain the curve and IC50.

PI3Kα = PI3Kα (Homo sapiens (Human), UniProt P42336); assay: PI3K inhibitory activity, Method 1 activity test; format: biochemical; conditions: PIP2 50 μM, ATP 25 μM
Experimental: Determination of the inhibitory activity of PI3K
(§16) 1. Preparation of test reagents
(1) 1× kinase buffer (50 mM HEPES, pH 7.5, 3 mM MgCl2, 1 mM EGTA, 100 mM NaCl, 0.03% CHAPS, 2 mM DTT);
(2) 4× kinase solution (added PI3K a kinase to 1× kinase buffer to provide 4× kinase solution with a final concentration of 1.65 nM);
(3) 2× substrate solution (added the substrates of PIP2 and ATP into 1× kinase buffer to provide 2× substrate solution with PIP2 final concentration of 50 μM and ATP final concentration of 25 μM);
(4) 4× test substance solutions (100× test substance solutions with different concentration gradients were prepared using 100% DMSO, and diluted 25-fold with 1× kinase buffer to give 4× test substance solutions with different concentration gradients);
(5) Invitrogen's activity test kit with the test solution was kept stand to room temperature.
(§17) 2. 2.5 μL of 4× test solution was added to a 384-well plate in parallel;
(§18) 3. added […] of 4× kinase solution and incubated for 10 min;
4. then added 5 μL of 2× solutions of PIP2 and ATP substrates and incubated for 1 h at room temperature;
5. finally, added 10 μL of test solution to quench the reaction, and read after 15 min;
(§19) 6. IC50 value was obtained via curve fitting. Inhibition rate (%)=(sample value−minimum)/(maximum−minimum)×100
Maximum refers to the readings of control wells without enzyme, minimum refers to the readings of DMSO control wells.
(§20) IC50 value was obtained via curve fitting using a soft of Graphpad 5.0.

mTOR = mTOR (Homo sapiens (Human), UniProt P42345); assay: mTOR inhibitory activity, Method 1 activity test; format: biochemical; conditions: 4EBP1 50 nM, ATP 10.8 μM
Experimental: Determination of the Inhibitory Activity of mTOR
as §16
(1) 1× kinase buffer (50 mM HEPES, pH 7.5, 10 mM MgCl2, 1 mM EGTA, 3 mM MnCl, 0.01% Tween-20, 2 mM DTT);
(2) 4× kinase solution (added mTOR kinase to 1× kinase buffer to provide 4× kinase solution with a final concentration of 2.5 nM);
(3) 2× substrate solution (added the substrates of 4EBP1 and ATP into 1× kinase buffer to provide 2× substrate solution with 4EBP1 final concentration of 50 nM and ATP final concentration of 10.8 μM);
(4) 4× test substance solutions (100× test substance solutions with different concentration gradients were prepared using 100% DMSO, and diluted 25-fold with 1× kinase buffer to give 4× test substance solutions with different concentration gradients)
(5) preparation of test solution (test solution containing EDTA and 4EBP1 phosphorylated antibody was prepared using activity test kit with assay buffer, the final concentration of EDTA was 8 mM, and the final concentration of 4EBP1 phosphorylated antibody was 2 nM)
as §17, §18
4. then added 5 μL of 2× solutions of 4EBP1 and ATP substrates and incubated for 1 h at room temperature;
5. finally, added 10 μL of test solution to quench the reaction, and read after 60 min;
as §19
Minimum refers to the readings of control wells without enzyme, maximum refers to the readings of DMSO control wells.
as §20

U87MG = assay: Cell viability assay by XTT method, U87MG; format: cell-based; conditions: Homo sapiens, U-87 MG
Experimental: as §1, §2, §3, §4, §5, §6, §7, §8, §9, §10, §11, §12, §13, §14, §15

[1] = In vivo pharmacokinetics in rats, intravenous bolus injection (IV); conditions: 2 mg/kg; for AUC / half-life: male, SD, rat, plasma, iv; for Cl_obs / Vss_obs: rats, IV
[2] = In vivo pharmacokinetics in rats, gavage (PO); conditions: male, SD, rat, plasma, 4 mg/kg
SD rats = assay: Repeated-dose toxicity test in rats; format: in vivo; conditions: 14 days; for hair loss (animals affected) / lassitude (animals affected) / loose stools (animals affected): gavage once daily, 20 rats
Experimental: The test substances were suspended in 0.5% methylcellulose solution to prepare suspensions with a concentration of 0.5 mg/mL, 1.5 mg/mL and 3 mg/mL.
Animals: SD rats, 6-8 weeks old, SPF grade, purchased from Beijing Vital River Laboratory Animal Technology Co., Ltd., licensed […] No: SCXK (Beijing) 2006-0009.
The test substances were administrated as a suspension via gavage, and administrating volume was 10 mL/kg. 0.5% methyl cellulose solution was used in the solvent group, and the administrating volume was 10 mL/kg, administered once daily for consecutive 14 days. Animals were observed daily appearance and general behavior changes.

Sequence of PI3Kα (P42336 whole entry): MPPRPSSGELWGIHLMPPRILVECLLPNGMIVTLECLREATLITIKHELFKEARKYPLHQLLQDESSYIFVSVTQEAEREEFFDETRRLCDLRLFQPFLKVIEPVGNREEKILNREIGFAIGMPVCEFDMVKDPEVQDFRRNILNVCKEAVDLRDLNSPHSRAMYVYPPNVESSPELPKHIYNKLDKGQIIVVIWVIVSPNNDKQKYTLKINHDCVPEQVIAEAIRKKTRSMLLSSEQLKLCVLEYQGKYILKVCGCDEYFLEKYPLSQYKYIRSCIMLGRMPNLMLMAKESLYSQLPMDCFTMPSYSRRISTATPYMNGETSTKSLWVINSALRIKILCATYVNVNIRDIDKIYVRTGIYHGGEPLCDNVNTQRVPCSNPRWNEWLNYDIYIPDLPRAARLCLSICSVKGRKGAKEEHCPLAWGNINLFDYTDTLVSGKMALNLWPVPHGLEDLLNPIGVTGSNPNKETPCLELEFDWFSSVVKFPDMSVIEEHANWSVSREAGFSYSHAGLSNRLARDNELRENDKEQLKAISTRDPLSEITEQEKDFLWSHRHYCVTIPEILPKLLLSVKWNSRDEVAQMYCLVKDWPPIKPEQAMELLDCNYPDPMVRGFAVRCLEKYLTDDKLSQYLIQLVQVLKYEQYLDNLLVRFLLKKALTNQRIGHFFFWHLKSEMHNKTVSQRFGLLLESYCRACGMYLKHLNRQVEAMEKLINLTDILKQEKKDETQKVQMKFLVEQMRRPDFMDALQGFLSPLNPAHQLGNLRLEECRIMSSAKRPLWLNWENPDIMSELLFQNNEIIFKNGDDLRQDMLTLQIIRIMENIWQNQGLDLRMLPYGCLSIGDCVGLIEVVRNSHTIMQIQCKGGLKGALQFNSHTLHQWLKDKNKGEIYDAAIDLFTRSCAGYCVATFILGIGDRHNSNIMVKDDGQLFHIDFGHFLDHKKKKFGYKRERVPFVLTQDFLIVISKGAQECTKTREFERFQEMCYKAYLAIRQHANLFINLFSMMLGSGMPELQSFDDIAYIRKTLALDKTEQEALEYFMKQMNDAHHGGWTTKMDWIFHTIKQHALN
Sequence of PI3Kα (P27986 whole entry partner): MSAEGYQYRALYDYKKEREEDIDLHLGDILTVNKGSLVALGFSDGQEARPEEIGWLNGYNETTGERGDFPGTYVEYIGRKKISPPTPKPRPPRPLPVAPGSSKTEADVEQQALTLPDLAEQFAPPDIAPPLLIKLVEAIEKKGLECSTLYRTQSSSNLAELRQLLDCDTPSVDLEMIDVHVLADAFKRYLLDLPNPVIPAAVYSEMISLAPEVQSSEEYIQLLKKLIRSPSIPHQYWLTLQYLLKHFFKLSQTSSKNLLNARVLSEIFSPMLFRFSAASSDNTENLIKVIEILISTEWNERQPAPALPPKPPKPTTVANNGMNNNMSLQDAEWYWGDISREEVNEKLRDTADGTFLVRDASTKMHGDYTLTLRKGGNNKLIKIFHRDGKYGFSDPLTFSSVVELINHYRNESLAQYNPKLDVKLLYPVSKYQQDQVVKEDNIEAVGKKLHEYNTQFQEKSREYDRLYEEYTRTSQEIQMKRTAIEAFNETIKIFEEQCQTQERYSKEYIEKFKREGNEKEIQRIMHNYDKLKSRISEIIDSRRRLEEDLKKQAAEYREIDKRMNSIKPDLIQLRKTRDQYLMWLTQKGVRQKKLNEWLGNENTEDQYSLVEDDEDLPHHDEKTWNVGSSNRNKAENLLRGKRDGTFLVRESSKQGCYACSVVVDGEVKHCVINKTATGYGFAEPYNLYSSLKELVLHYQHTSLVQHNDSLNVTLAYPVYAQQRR

SMILES | IC50 (SKOV-3) [nM] | IC50 (PI3Kα) [nM] | IC50 (mTOR) [nM] | IC50 (U87MG) [nM] | AUC [1] [ng·h/mL] | half-life [1] [h] | Cl_obs [1] [mL/min/kg] | Vss_obs [1] [L/kg] | AUC [2] [ng·h/mL] | Cmax [2] [ng/mL] | bioavailability [2] [%] | also measured
CN1Cc2cnc3ccc(-c4cnc5[nH]ccc5c4)nc3c2N(c2cccc(C(F)(F)F)c2)C1=O [Compound 22, 3-methyl-9-(1H-pyrrolo[2,3-b]pyridin-5-yl)-1-(3-(trifluoromethyl)phenyl)-3,4-dihydropyrimido[5,4-c][1,5]naphthyridin-1(2H)-one] | 551 | 10.2 | 17.5 | 275 | 357 | 0.72 | 92.8 | 5.28 |  |  |  | 
CN1Cc2cnc3ccc(-c4cnc5ccccc5c4)nc3c2N(c2ccc(C(C)(C)C#N)cc2)C1=O [Compound 52] | 467 | 154 | 66.5 | 436 |  |  |  |  |  |  |  | 
COc1ccc(-c2ccc3ncc4c(c3n2)N(c2cccc(C(F)(F)F)c2)C(=O)N(C)C4)cn1 [Compound 2] |  | 88.4 | 54.3 |  |  |  |  |  |  |  |  | 
COc1ccc(-c2ccc3ncc4c(c3n2)N(c2ccc(C(C)(C)C#N)cc2)C(=O)N(C)C4)cn1 [Compound 30, 2-(4-(9-(6-methoxypyridin-3-yl)-3-methyl-2-oxo-3,4-dihydropyrimido[5,4-c][1,5]naphthyridin-1(2H)-yl)phenyl)-2-methylpropionitrile] | 349 |  |  | 499 |  |  |  |  |  |  |  | 
CSc1ccc(-c2ccc3ncc4c(c3n2)N(c2cccc(C(F)(F)F)c2)C(=O)N(C)C4)cn1 [Compound 8] |  | 260 | 76.5 |  |  |  |  |  |  |  |  | 
COc1ncc(-c2ccc3ncc4c(c3n2)N(c2cccc(C(F)(F)F)c2)C(=O)N(C)C4)cn1 [Compound 13] |  | 21 | 30.3 |  |  |  |  |  |  |  |  | 
CN1CCN(c2ccc(-c3ccc4ncc5c(c4n3)N(c3cccc(C(F)(F)F)c3)C(=O)N(C)C5)cn2)CC1 [Compound 11] |  | 496 | 31.2 |  |  |  |  |  |  |  |  | 
CN1Cc2cnc3ccc(-c4cnc5ccccc5c4)nc3c2N(c2ccc(N3CCNCC3)c(C(F)(F)F)c2)C1=O [Compound 80] | 542 |  |  | 279 |  |  |  |  |  |  |  | 
CN1Cc2cnc3ccc(-c4ccc(C#N)nc4)nc3c2N(c2cccc(C(F)(F)F)c2)C1=O [Compound 6] |  | 33.8 | 24 |  |  |  |  |  |  |  |  | 
CN1Cc2cnc3ccc(-c4ccc(N)nc4)nc3c2N(c2cccc(C(F)(F)F)c2)C1=O [Compound 3] | 155 | 10.4 | 8.86 | 84.7 | 1700 | 6.48 | 19 | 5.6 | 1380 | 198 | 40.4 | half-life [2]: 5.33 h; hair loss (animals affected) (SD rats; high dose 30 mg/kg/day): one and 1/20; lassitude (animals affected) (SD rats; high dose 30 mg/kg/day): four and 4/20; loose stools (animals affected) (SD rats; high dose 30 mg/kg/day): one and 1/20; abnormal vital signs (SD rats; low dose 5 mg/kg/day): no animals with abnormal vital signs; hair loss (animals affected) (SD rats; low dose 5 mg/kg/day): 0/20; lassitude (animals affected) (SD rats; low dose 5 mg/kg/day): 0/20; loose stools (animals affected) (SD rats; low dose 5 mg/kg/day): 0/20; hair loss (animals affected) (SD rats; middle dose 15 mg/kg/day): 0/20; lassitude (animals affected) (SD rats; middle dose 15 mg/kg/day): 0/20; loose stools (animals affected) (SD rats; middle dose 15 mg/kg/day): one and 1/20
Cn1c(=O)n(-c2ccc(C(C)(C)C#N)cc2)c2c3cc(-c4cnc5ccccc5c4)ccc3ncc21 [BEZ-235, reference compound] |  |  |  |  | 1440 | 3.19 | 23 | 5.93 | 2180 | 229 | 77.4 | Tmax [2]: 2.83 h; half-life [2]: 4.08 h; hair loss (animals affected) (SD rats; high dose 30 mg/kg/day): three and 3/20; lassitude (animals affected) (SD rats; high dose 30 mg/kg/day): 0/20; loose stools (animals affected) (SD rats; high dose 30 mg/kg/day): fifteen and 15/20; hair loss (animals affected) (SD rats; low dose 5 mg/kg/day): 0/20; lassitude (animals affected) (SD rats; low dose 5 mg/kg/day): 0/20; loose stools (animals affected) (SD rats; low dose 5 mg/kg/day): six and 6/20; hair loss (animals affected) (SD rats; middle dose 15 mg/kg/day): 0/20; lassitude (animals affected) (SD rats; middle dose 15 mg/kg/day): 0/20; loose stools (animals affected) (SD rats; middle dose 15 mg/kg/day): seven and 7/20
CN1Cc2cnc3ccc(-c4cnc(N)nc4)nc3c2N(c2cccc(C(F)(F)F)c2)C1=O [Compound 14, 9-(2-aminopyrimidin-5-yl)-3-methyl-1-(3-(trifluoromethyl)phenyl)-3,4-dihydropyrimido[5,4-c][1,5]naphthyridin-1(2H)-one] | 890 | 3.3 | 8.5 | 437 | 735 | 2.08 | 47.3 | 2.97 | 402 | 147 | 26.3 | Tmax [2]: 0.5 h; half-life [2]: 1.39 h
CC(=O)Nc1ccc(-c2ccc3ncc4c(c3n2)N(c2cccc(C(F)(F)F)c2)C(=O)N(C)C4)cn1 [Compound 7, N-(5-(3-methyl-2-oxo-1-(3-(trifluoromethyl)phenyl)-1,2,3,4-tetrahydropyrimido[5,4-c][1,5]naphthyridin-9-yl)pyridin-2-yl)acetamide] | 895 | 29.3 | 38.7 | 901 | 275 | 0.47 | 124 | 4.45 | 63.4 | 34.9 | 11.6 | Tmax [2]: 0.5 h; half-life [2]: 1.7 h
CN1Cc2cnc3ccc(-c4ccc(-n5cccn5)nc4)nc3c2N(c2cccc(C(F)(F)F)c2)C1=O [Compound 9] |  | 873 | 43.7 |  |  |  |  |  |  |  |  | 
COc1ccc(-c2ccc3ncc4c(c3c2)n(-c2ccc(N3CCNCC3)c(C(F)(F)F)c2)c(=O)n4C)cn1 [BGT-226, reference compound] |  | 41.9 | 1.99 |  | 1520 | 4.8 | 21.7 | 8.72 | 852 | 61.1 | 28 | Tmax [2]: 6 h
